# Active and inactive are the calls of the source. No cut-off for these calls is given here.
# Key:
# [1] = target: T1, Nuclear receptor subfamily 1 group I member 2 (Homo sapiens, UniProt O75469); assay: Activity at PXR in human hepatocytes assessed as induction of CYP3A4 activity at 1 uM relative rifampicin; type: cell-based, Hepatocyte
# T1 sequence (O75469 whole entry): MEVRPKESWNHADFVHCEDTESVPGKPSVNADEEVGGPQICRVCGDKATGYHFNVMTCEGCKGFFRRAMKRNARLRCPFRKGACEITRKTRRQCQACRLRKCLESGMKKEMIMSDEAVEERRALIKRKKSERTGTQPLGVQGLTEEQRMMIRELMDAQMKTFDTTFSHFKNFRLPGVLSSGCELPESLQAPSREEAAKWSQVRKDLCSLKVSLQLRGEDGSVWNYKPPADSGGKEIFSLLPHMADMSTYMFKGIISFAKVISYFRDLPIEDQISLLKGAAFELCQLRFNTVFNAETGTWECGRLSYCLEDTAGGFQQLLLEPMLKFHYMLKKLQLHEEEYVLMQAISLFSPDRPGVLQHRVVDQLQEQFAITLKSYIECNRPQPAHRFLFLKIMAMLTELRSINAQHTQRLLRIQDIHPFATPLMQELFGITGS
# Nociceptin receptor [2] = target: T2, Nociceptin receptor (Homo sapiens, UniProt P41146); assay: Displacement of [125I][Tyr14]nociceptin from human cloned ORL1 receptor expressed in CHO cells; type: cell-based
# Mu-type opioid receptor [3] = target: T3, Mu-type opioid receptor (Homo sapiens, UniProt P35372); assay: Displacement of [3H]diprenorphine from human mu opioid receptor expressed in CHO cells; type: cell-based
# Homo sapiens = organism: Homo sapiens; assay: Selectivity for human cloned ORL1 receptor over human mu opioid receptor
# Cavia porcellus [4] = assay: Antitussive activity in guinea pig GPPV model assessed as reduction of capsaicin-induced coughing at 0.3 mg/kg, po after 2 hrs administered 15 mins before capsaicin challenge; type: functional
# Nociceptin receptor [5] = target: T2, Nociceptin receptor; assay: Agonist activity at human cloned ORL1 receptor assessed as stimulation of GTPgammaS binding at 10 uM; type: functional
# Mu-type opioid receptor [6] = target: T3, Mu-type opioid receptor; assay: Agonist activity at human mu opioid assessed as stimulation of GTPgammaS binding; type: functional
# Mu-type opioid receptor [7] = target: T3, Mu-type opioid receptor; assay: Agonist activity at human mu opioid receptor assessed as stimulation of GTPgammaS binding at 10 uM; type: functional
# Nociceptin receptor [8] = target: T2, Nociceptin receptor; assay: Agonist activity at human cloned ORL1 receptor assessed as stimulation of GTPgammaS binding; type: functional
# Cavia porcellus [9] = assay: Antitussive activity in po dosed guinea pig GPPV model assessed as reduction of capsaicin-induced coughing after 2 hrs administered 15 mins before capsaicin challenge; type: functional
# Rattus norvegicus = organism: Rattus norvegicus; assay: Anxiolytic like activity in rat assessed as conditioned lick suppression after 2 hrs; type: functional
# T2 sequence (P41146 whole entry): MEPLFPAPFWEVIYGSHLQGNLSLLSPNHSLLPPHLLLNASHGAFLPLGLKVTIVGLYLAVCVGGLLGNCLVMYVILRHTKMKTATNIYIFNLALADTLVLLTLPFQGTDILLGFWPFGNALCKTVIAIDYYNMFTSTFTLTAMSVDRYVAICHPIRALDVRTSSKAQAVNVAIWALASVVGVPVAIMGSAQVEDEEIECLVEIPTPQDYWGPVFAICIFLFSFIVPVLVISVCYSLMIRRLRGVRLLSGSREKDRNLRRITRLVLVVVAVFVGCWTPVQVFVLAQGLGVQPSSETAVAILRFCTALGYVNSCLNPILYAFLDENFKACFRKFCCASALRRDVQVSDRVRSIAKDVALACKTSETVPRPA
# T3 sequence (P35372 whole entry): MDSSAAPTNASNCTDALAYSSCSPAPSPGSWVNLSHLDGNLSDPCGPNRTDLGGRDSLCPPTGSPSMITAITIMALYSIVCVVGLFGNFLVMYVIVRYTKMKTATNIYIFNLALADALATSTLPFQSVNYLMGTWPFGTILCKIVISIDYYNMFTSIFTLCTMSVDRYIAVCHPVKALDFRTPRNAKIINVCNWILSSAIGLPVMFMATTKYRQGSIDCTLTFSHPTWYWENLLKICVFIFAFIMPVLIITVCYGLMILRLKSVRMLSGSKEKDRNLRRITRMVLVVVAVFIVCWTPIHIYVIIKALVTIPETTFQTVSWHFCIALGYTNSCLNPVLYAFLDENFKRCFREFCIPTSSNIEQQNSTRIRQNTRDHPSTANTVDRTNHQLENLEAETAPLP
structure (smiles),measurement,setting,value
NC(=O)[C@]1(c2cc(F)c(F)cn2)C[C@H]2CC[C@@H](C1)N2C(c1ccccc1Cl)c1ccccc1Cl,Ratio,[1],0.18
same,Ki,Nociceptin receptor [2],9 nM
same,Ki,Mu-type opioid receptor [3],74 nM
NC(=O)[C@]1(c2ccccn2)C[C@H]2CC[C@@H](C1)N2C(c1ccccc1Cl)c1ccccc1Cl,Ratio,[1],0.79
same,Ki,Nociceptin receptor [2],4 nM
same,Ki,Mu-type opioid receptor [3],52 nM
NC(=O)[C@]1(c2ccncc2)C[C@H]2CC[C@@H](C1)N2C(c1ccccc1Cl)c1ccccc1Cl,Ki,Nociceptin receptor [2],79 nM
same,Ki,Mu-type opioid receptor [3],265 nM
same,fold change (FC),Homo sapiens,20
NC(=O)[C@]1(c2cc(F)cc(F)n2)C[C@H]2CC[C@@H](C1)N2C(c1ccccc1Cl)c1ccccc1Cl,Ratio,[1],0.55
same,Ki,Nociceptin receptor [2],15 nM
same,Ki,Mu-type opioid receptor [3],468 nM
NC(=O)c1ccc([C@@]2(C(N)=O)C[C@H]3CC[C@@H](C2)N3C(c2ccccc2Cl)c2ccccc2Cl)nc1,Ki,Nociceptin receptor [2],401 nM
same,Ki,Mu-type opioid receptor [3],1320 nM
same,fold change (FC),Homo sapiens,4
N[C@]1(Cc2ccc(Cl)cc2)C[C@H]2CC[C@@H](C1)N2C(c1ccccc1Cl)c1ccccc1Cl,Ki,Nociceptin receptor [2],36 nM
same,Ki,Mu-type opioid receptor [3],447 nM
N[C@]1(c2ccccn2)C[C@H]2CC[C@@H](C1)N2C(c1ccccc1Cl)c1ccccc1Cl,Activity,Cavia porcellus [4],inactive
same,Ratio,[1],0.47
same,Ki,Nociceptin receptor [2],10 nM
same,Ki,Mu-type opioid receptor [3],343 nM
same,fold change (FC),Homo sapiens,32
NC(=O)[C@]1(c2cccc(F)n2)C[C@H]2CC[C@@H](C1)N2C(c1ccccc1Cl)c1ccccc1Cl,Ratio,[1],1.06
same,Ki,Nociceptin receptor [2],10 nM
same,Ki,Mu-type opioid receptor [3],348 nM
same,fold change (FC),Homo sapiens,35
NC(=O)[C@]1(c2cc(C(=O)O)c(F)cn2)C[C@H]2CC[C@@H](C1)N2C(c1ccccc1Cl)c1ccccc1Cl,Ki,Nociceptin receptor [2],> 1000 nM
NC(=O)[C@]1(c2ccc(O)cn2)C[C@H]2CC[C@@H](C1)N2C(c1ccccc1Cl)c1ccccc1Cl,Ki,Nociceptin receptor [2],72 nM
same,fold change (FC),Homo sapiens,4
CN(C)[C@]1(c2ccccn2)C[C@H]2CC[C@@H](C1)N2C(c1ccccc1Cl)c1ccccc1Cl,Ki,Nociceptin receptor [2],42 nM
same,Ki,Mu-type opioid receptor [3],840 nM
CC(=O)N[C@]1(c2ccccn2)C[C@H]2CC[C@@H](C1)N2C(c1ccccc1Cl)c1ccccc1Cl,Activity,Nociceptin receptor [5],84%
same,EC50,Mu-type opioid receptor [6],1930 nM
same,Activity,Mu-type opioid receptor [7],68%
same,EC50,Nociceptin receptor [8],19 nM
same,Ratio,[1],1.97
same,Ki,Nociceptin receptor [2],6 nM
same,Ki,Mu-type opioid receptor [3],312 nM
same,fold change (FC),Homo sapiens,52
NC(=O)C1(C2CCCCN2)C[C@H]2CC[C@H](C1)N2C(c1ccccc1Cl)c1ccccc1Cl (relative stereo),Ki,Nociceptin receptor [2],17 nM
same,Ki,Mu-type opioid receptor [3],474 nM
COC(=O)N[C@]1(c2ccccn2)C[C@H]2CC[C@@H](C1)N2C(c1ccccc1Cl)c1ccccc1Cl,Activity,Nociceptin receptor [5],92%
same,EC50,Mu-type opioid receptor [6],3780 nM
same,Activity,Mu-type opioid receptor [7],52%
same,EC50,Nociceptin receptor [8],87 nM
same,Ratio,[1],0.98
same,Ki,Nociceptin receptor [2],10 nM
same,Ki,Mu-type opioid receptor [3],741 nM
same,fold change (FC),Homo sapiens,74
NC(=O)[C@]1(c2ccc(Br)cn2)C[C@H]2CC[C@@H](C1)N2C(c1ccccc1Cl)c1ccccc1Cl,Activity,Nociceptin receptor [5],75%
same,EC50,Mu-type opioid receptor [6],421 nM
same,Activity,Mu-type opioid receptor [7],89%
same,EC50,Nociceptin receptor [8],63 nM
same,Ratio,[1],0.09
same,Ki,Nociceptin receptor [2],29 nM
same,Ki,Mu-type opioid receptor [3],153 nM
same,fold change (FC),Homo sapiens,4
CC(=O)N[C@]1(c2ccc(F)cn2)C[C@H]2CC[C@@H](C1)N2C(c1ccccc1Cl)c1ccccc1Cl,Ratio,[1],1.47
same,Ki,Nociceptin receptor [2],10 nM
same,Ki,Mu-type opioid receptor [3],601 nM
same,fold change (FC),Homo sapiens,60
NC(=O)[C@]1(c2cccnc2)C[C@H]2CC[C@@H](C1)N2C(c1ccccc1Cl)c1ccccc1Cl,Ratio,[1],0.4
same,Ki,Nociceptin receptor [2],3 nM
same,Ki,Mu-type opioid receptor [3],71 nM
NC(=O)[C@]1(c2ncc(F)cc2F)C[C@H]2CC[C@@H](C1)N2C(c1ccccc1Cl)c1ccccc1Cl,Ki,Nociceptin receptor [2],47 nM
NC(=O)[C@@]1(Cc2ccc(F)cc2)C[C@H]2CC[C@@H](C1)N2C(c1ccccc1Cl)c1ccccc1Cl,Activity,Nociceptin receptor [5],108%
same,EC50,Mu-type opioid receptor [6],540 nM
same,Activity,Mu-type opioid receptor [7],107%
same,EC50,Nociceptin receptor [8],11 nM
same,Ratio,[1],0.48
same,Ki,Nociceptin receptor [2],3 nM
same,Ki,Mu-type opioid receptor [3],85 nM
COc1ccc([C@@]2(C(N)=O)C[C@H]3CC[C@@H](C2)N3C(c2ccccc2Cl)c2ccccc2Cl)nc1,Ratio,[1],0.19
same,Ki,Nociceptin receptor [2],22 nM
same,Ki,Mu-type opioid receptor [3],133 nM
CC(=O)NC[C@]1(c2ccccc2)C[C@H]2CC[C@@H](C1)N2C(c1ccccc1Cl)c1ccccc1Cl,ED50,Cavia porcellus [9],0.19 mg/kg
same,EC50,Nociceptin receptor [8],269 nM
same,Ratio,[1],0.94
same,Ki,Nociceptin receptor [2],20 nM
NC(=O)[C@]1(c2ccc(N)cn2)C[C@H]2CC[C@@H](C1)N2C(c1ccccc1Cl)c1ccccc1Cl,Ki,Nociceptin receptor [2],31 nM
same,Ki,Mu-type opioid receptor [3],205 nM
same,fold change (FC),Homo sapiens,4
COC(=O)c1ccc([C@@]2(C(N)=O)C[C@H]3CC[C@@H](C2)N3C(c2ccccc2Cl)c2ccccc2Cl)nc1,Ki,Nociceptin receptor [2],> 1000 nM
same,fold change (FC),Homo sapiens,4
NC(=O)[C@]1(c2ccc(Cl)cn2)C[C@H]2CC[C@@H](C1)N2C(c1ccccc1Cl)c1ccccc1Cl,Activity,Nociceptin receptor [5],145%
same,EC50,Mu-type opioid receptor [6],368 nM
same,Activity,Mu-type opioid receptor [7],97%
same,EC50,Nociceptin receptor [8],44 nM
same,Ratio,[1],0.27
same,Ki,Nociceptin receptor [2],15 nM
same,ED50,Rattus norvegicus,2.4 mg/kg
same,Ki,Mu-type opioid receptor [3],143 nM
NC(=O)[C@]1(c2nc(F)ccc2F)C[C@H]2CC[C@@H](C1)N2C(c1ccccc1Cl)c1ccccc1Cl,Ratio,[1],0.83
same,Ki,Nociceptin receptor [2],16 nM
N#Cc1ccc([C@@]2(C(N)=O)C[C@H]3CC[C@@H](C2)N3C(c2ccccc2Cl)c2ccccc2Cl)nc1,Ki,Nociceptin receptor [2],75 nM
same,Ki,Mu-type opioid receptor [3],481 nM
same,fold change (FC),Homo sapiens,4
N[C@]1(c2ccc(F)cn2)C[C@H]2CC[C@@H](C1)N2C(c1ccccc1Cl)c1ccccc1Cl,Activity,Cavia porcellus [4],inactive
same,Ratio,[1],0.23
same,Ki,Nociceptin receptor [2],7 nM
same,Ki,Mu-type opioid receptor [3],209 nM
same,fold change (FC),Homo sapiens,32
NC(=O)[C@]1(c2cc(CF)c(F)cn2)C[C@H]2CC[C@@H](C1)N2C(c1ccccc1Cl)c1ccccc1Cl,Ratio,[1],0.77
same,Ki,Nociceptin receptor [2],19 nM
same,Ki,Mu-type opioid receptor [3],367 nM
NC(=O)[C@]1(Cc2ccc(Cl)cc2)C[C@H]2CC[C@@H](C1)N2C(c1ccccc1Cl)c1ccccc1Cl,Ratio,[1],0.67
same,Ki,Nociceptin receptor [2],10 nM
same,Ki,Mu-type opioid receptor [3],284 nM
COc1ccc2c3c1O[C@H]1[C@@H](O)C=C[C@H]4[C@@H](C2)N(C)CC[C@@]341 [CODEINE],ED50,Cavia porcellus [9],6.7 mg/kg
COC(=O)N[C@]1(c2ccc(Cl)cn2)C[C@H]2CC[C@@H](C1)N2C(c1ccccc1Cl)c1ccccc1Cl,Ratio,[1],1.06
same,Ki,Nociceptin receptor [2],12 nM
same,Ki,Mu-type opioid receptor [3],961 nM
same,fold change (FC),Homo sapiens,74
NC(=O)[C@]1(c2ccc(C(F)(F)F)cn2)C[C@H]2CC[C@@H](C1)N2C(c1ccccc1Cl)c1ccccc1Cl,Ki,Nociceptin receptor [2],122 nM
same,fold change (FC),Homo sapiens,4
NC(=O)[C@]1(c2ccc(Br)nc2)C[C@H]2CC[C@@H](C1)N2C(c1ccccc1Cl)c1ccccc1Cl,Ki,Nociceptin receptor [2],13 nM
same,Ki,Mu-type opioid receptor [3],46 nM
COC(=O)NC1(c2ccc(F)cn2)C[C@H]2CC[C@H](C1)N2C(c1ccccc1Cl)c1ccccc1Cl (relative stereo),Ratio,[1],1.38
same,Ki,Nociceptin receptor [2],12 nM
same,Ki,Mu-type opioid receptor [3],887 nM
same,fold change (FC),Homo sapiens,74
Cc1ccc([C@@]2(C(N)=O)C[C@H]3CC[C@@H](C2)N3C(c2ccccc2Cl)c2ccccc2Cl)nc1,Ratio,[1],0.4
same,Ki,Nociceptin receptor [2],6 nM
same,Ki,Mu-type opioid receptor [3],26 nM
NC(=O)C[C@]1(Cc2ccc(O)cc2)C[C@H]2CC[C@@H](C1)N2C(c1ccccc1Cl)c1ccccc1Cl,Ratio,[1],0.51
same,Ki,Nociceptin receptor [2],17 nM
